Assay results published in patent US5891657A (priority 1994, dated 1999).
Values after ≈ are worked out from the molar mass of the structure shown.

Assays:
[1] = tested on: anti-analyte antibody; details: magnetic-particle enzyme immunoassay
Experimental: (§1) The sample to be tested is added, along with the enzyme conjugate, to a disposable test tube followed by the addition of paramagnetic particles with analyte-specific antibodies attached. At the end of an incubation period, a magnetic field is applied to hold the paramagnetic particles (with analyte and enzyme-conjugate bound to the antibodies on the particles, in proportion to their original concentration in the tube) in the tube and allow the unbound reagents to be decanted. After decanting, the particles are washed with Washing Solution.
(§2) The presence of analyte is detected by adding the enzyme substrate (hydrogen peroxide) and the chromogen (3,3',5,5'-tetramethylbenzidine). The enzyme-conjugate bound to the anti-analyte antibody catalyzes the conversion of the substrate/chromogen mixture to a colored product. After an incubation period, the reaction is stopped and stabilized by the addition of acid. Since the conjugate was in competition with the unlabeled analyte for the antibody sites, the color developed is inversely proportional to the concentration of analyte in the sample.
(§3) 200 μl of either standard, control or sample is added to each tube.
(§4) 250 μl of conjugate is added to each tube.
(§5) The antibody-coupled paramagnetic particles are mixed thoroughly and 500 ul of them are added to each tube (The stock solution with a concentration of 8-10 mg iron/ml was diluted 1:1000 in 150 mM Tris, 150 mM NaCl, 1 mM EDTA, 0.1% BSA with 15 ppm Proclin, pH 7.4 and 500 ul was added to each tube).
(§6) Tubes are vortexed for 1 to 2 seconds minimizing foaming.
(§7) Tubes are incubated for 15 min at room temperature (15°-30° C.).
(§8) Tubes in the magnetic rack are placed over a magnetic base for two minutes.
(§9) The tubes are decanted and gently blotted briefly in a consistent manner.
(§10) One ml of Washing Solution is added to each tube and the tubes are allowed to remain in the separation rack for two minutes.
(§11) Decant and gently blot all tubes briefly in a consistent manner.
(§12) Repeat steps 8 and 9 an additional time.
(§13) Remove the rack from the separator and add 500 μl of Color Solution to eac tube.
(§14) Vortex for 1 to 2 seconds minimizing foaming.
(§15) Incubate for 20 minutes at room temperature.
(§16) Add 500 μl of Stopping Solution to each tube.
(§17) Read results at 450 nm within 15 minutes after adding the Stopping Solution.
(§18) Calculating the mean absorbance value for each standard.
(§19) Calculating the % B/B0 for each standard by dividing the mean absorbance value for the standard by the mean absorbance value for the Diluent/Zero Standard In other words if the mean absorbance value for the standard is 0.5 times the mean absorbance value for the Diluent/Zero Standard then the % B/B0 is 50% and the concentration of standard used is the 50% B/B0 concentration.)
(§20) Constructing a standard curve by plotting the % B/B0 for each standard on vertical logit (Y) axis versus the corresponding analyte concentration on a horizontal algorithmic (X) axis.
(§21) 4. % B/B0 for controls and sample will then yield levels in ppm of analyte by interpolation using the standard curve.

[2] = Loss of immunoreactivity on storage in open test tube (volatilization); assay type: physicochemical; details: conditions of Example 1; 2,4-D 10 ppm, naphthalene 0.75 ppm; FIG. 5
Experimental: They were stored in 10 ml of distilled water at room temperature (15°-30° C.) in an open test tube (18 mm in diameter, and 150 mm in length).
The "Recovery" was taken to be inversely proportional to the light at 450 nm generated in the assay. […] The loss of reactivity as a function of time was concluded that the loss was due to volatilization and not chemical decomposition of the compounds. Also the loss was so great that it was concluded that even if the solutions had been incubated as 2 ml aliquots in 3 ml closed vials, much more than 30 percent would have volatilized over a 14-day period.
Additionally, preparations of anthracene (20 ppm), naphthalene (0.75 ppm), and 2,4-D (10 ppm), were tested for their immunoreactivity using the conditions of using the conditions described in Example 1.

[3] = Stability (lack of volatilization) of 2 ml solution in stoppered 3 ml vial; assay type: physicochemical; details: 0.035, 0.10, 0.750 ppm; 2 ml in stoppered 3 ml vial; various temperatures; 60 days; FIGS. 2-4
Experimental: Storage was effected by incubating the 2 ml of solution in a stoppered vial with a 3 ml capacity. The one ml of open "head space" in the vial […] to allow volatilization of the N-(3-methylbenzyl)-diglycolic acid, monoamide.
At each concentration of the N-(3-methylbenzyl)-diglycolic acid, monoamide, the immunoassay was performed at various temperatures denoted in the Figure summarizing the results.

[4] = tested on: anti-analyte antibody; test: Cross-reactivity / immunoreactivity in competitive magnetic-particle enzyme immunoassay
Experimental: as §1, §2, §3, §4, §5, §6, §7, §8, §9, §10, §11, §12, §13, §14, §15, §16, §17, §18, §19, §20, §21

[5] = because of boiling point 279° C. (Merck Index); cited from earlier work
[6] = Storage stability, 2.5 ml in 3.5 ml vials, antibody preparation reactive with anthracene and phenanthrene; assay type: physicochemical
Experimental: Additional experiments were done using volumes of 2.5 ml in 3.5 ml vials and an antibody preparation reactive with anthracene and phenanthrene, the antibodies not made with the immunogen described herein and although much less suited for purposes of the present inventions than that made from the described immunogen, were adequate for obtaining the stability curves. (The results were considered to essentially reflect what would have occurred if the storage was done with 2 ml of solution in a 3 ml vial.) Anthracene was tested at concentrations of 1 ppb (upper set of curves in FIG. 6), 10 ppb (middle set of curves in FIG. 6) and 100 ppb (lower set of curves in FIG. 6) in TBS pH 7.0 at the specified temperatures in FIG. 6. Phenanthrene was tested at concentrations of 1 ppb (upper set of curves in FIG. 7), 10 ppb (middle set of curves in FIG. 7) and 100 ppb (lower set of curves in FIG. 7) in TBS at pH 7.0 at the specified temperatures in FIG. 7.

Structure (SMILES) | IC50 [1] | other results
Cc1ccc(C)c(C)c1 [1,2,4-trimethylbenzene] | 1.15 µg/mL (≈ 9.57 µM) | –
Cc1cc(C)cc(C)c1 [1,3,5-tri-methylbenzene] | 3.5 µg/mL (≈ 29.1 µM) | –
O=C(O)COc1ccc(Cl)cc1Cl [2,4-D] | – | stability on storage [2]: more stable than m-xylene but less stable than anthracene
Cc1cccc(CNC(=O)COCC(=O)O)c1 [N-(3-methylbenzyl)-diglycolic acid, monoamide] | – | stability (lack of volatilization) as a function of storage time [3]: essentially stable; equivalent Total BTEX concentration ([4]; standard at 0.035 ppm): approximately 0.09 ppm; equivalent Total BTEX concentration ([4]; standard at 0.035 ppm, monoamide): 0.09 ppm; equivalent Total BTEX concentration ([4]; standard at 0.10 ppm): approximately 0.35 ppm; equivalent Total BTEX concentration ([4]; standard at 0.10 ppm, monoamide): 0.35 ppm; equivalent Total BTEX concentration ([4]; standard at 0.75 ppm): approximately 3.00 ppm; equivalent Total BTEX concentration ([4]; standard at 0.75 ppm, monoamide): 3.00 ppm
c1cc2c3c(cccc3c1)CC2 [acenaphthene] | 6.2 µg/mL (≈ 40.2 µM) | stability as regards volatilization [5]: stable as regards volatilization
c1ccc2cc3ccccc3cc2c1 [anthracene] | 28 µg/mL (≈ 157 µM) | stability on storage ([6]; 1, 10, 100 ppb in TBS pH 7.0, 2.5 ml in 3.5 ml vials, FIGS. 6, 7): very stable (meets the 14-day test)
c1ccccc1 [benzene] | 51 µg/mL (≈ 653 µM) | –
C1CCCCC1 [cyclohexane] | > 100 µg/mL | –
CCc1ccccc1 [ethylbenzene] | 7.8 µg/mL (≈ 73.5 µM) | –
Clc1c(Cl)c(Cl)c(Cl)c(Cl)c1Cl [hexachlorobenzene] | > 100 µg/mL | –
Cc1cccc(C)c1 [m-xylene] | 1.8 µg/mL (≈ 17 µM) | –
ClCCl [methylene chloride] | > 100 µg/mL | –
CCCCCCCCCC [n-decane] | > 100 µg/mL | –
CCCCCCC [n-heptane] | 72 µg/mL (≈ 719 µM) | –
CCCCCC [n-hexane] | > 100 µg/mL | –
CCCCCCCCC [n-nonane] | > 100 µg/mL | –
CCCCCCCC [n-octane] | > 100 µg/mL | –
CCCc1ccccc1 [n-propylbenzene] | 4.7 µg/mL (≈ 39.1 µM) | –
c1ccc2ccccc2c1 [naphthalene] | 0.59 µg/mL (≈ 4.6 µM) | stability on storage [2]: not sufficiently stable
Cc1ccccc1C [o-xylene] | 4.7 µg/mL (≈ 44.3 µM) | –
Cc1ccc(C)cc1 [p-xylene] | 3.1 µg/mL (≈ 29.2 µM) | –
c1ccc2c(c1)ccc1ccccc12 [phenanthrene] | 1.6 µg/mL (≈ 8.98 µM) | stability on storage ([6]; pH 7): very stable (meets the 14-day test)
C=Cc1ccccc1 [styrene] | 2.6 µg/mL (≈ 25 µM) | –
Cc1ccccc1 [toluene] | 7.4 µg/mL (≈ 80.3 µM) | –
ClC=C(Cl)Cl [trichloroethylene] | > 100 µg/mL | –
